Assay: Test I: turbidity (apparent absorbance at 650 nm) of drug solutions with or without test polymer
Settings: pH 7 phosphate buffer
[1] = drug 31.3 μg/ml, Dextran 65,000 0.5% w/w
[2] = drug 31.3 μg/ml, Ethylcellulose A15 0.5% w/w
[3] = drug 31.3 μg/ml, Glycerin (non-polymer) 0.5% w/w
[4] = drug 31.3 μg/ml, HPC 80,000 0.5% w/w
[5] = drug 31.3 μg/ml, HPMC E15 0.5% w/w
[6] = drug 31.3 μg/ml, Na CMC 250,000 0.5% w/w
[7] = drug 31.3 μg/ml, PEG 8,000 0.5% w/w
[8] = drug 31.3 μg/ml, PEG 20,000 0.5% w/w
[9] = drug 31.3 μg/ml, PVP 10,000 0.5% w/w
[10] = drug 31.3 μg/ml, PVP 29,000 0.5% w/w
[11] = drug 31.3 μg/ml, PVP 55,000 0.5% w/w
[12] = drug 62.5 μg/ml, Dextran 65,000 0.5% w/w
[13] = drug 62.5 μg/ml, Ethylcellulose A15 0.5% w/w
[14] = drug 62.5 μg/ml, Glycerin (non-polymer) 0.5% w/w
[15] = drug 62.5 μg/ml, HPC 80,000 0.5% w/w
[16] = drug 62.5 μg/ml, HPMC E15 0.5% w/w
[17] = drug 62.5 μg/ml, Na CMC 250,000 0.5% w/w
[18] = drug 62.5 μg/ml, PEG 8,000 0.5% w/w
[19] = drug 62.5 μg/ml, PEG 20,000 0.5% w/w
[20] = drug 62.5 μg/ml, PVP 10,000 0.5% w/w
[21] = drug 62.5 μg/ml, PVP 29,000 0.5% w/w
[22] = drug 62.5 μg/ml, PVP 55,000 0.5% w/w
[23] = drug 125 μg/ml, Dextran 65,000 0.5% w/w
[24] = drug 125 μg/ml, Ethylcellulose A15 0.5% w/w
[25] = drug 125 μg/ml, Glycerin (non-polymer) 0.5% w/w
[26] = drug 125 μg/ml, HPC 80,000 0.5% w/w
[27] = drug 125 μg/ml, HPMC E15 0.5% w/w
[28] = drug 125 μg/ml, Na CMC 250,000 0.5% w/w
[29] = drug 125 μg/ml, PEG 8,000 0.5% w/w
[30] = drug 125 μg/ml, PEG 20,000 0.5% w/w
[31] = drug 125 μg/ml, PVP 10,000 0.5% w/w
[32] = drug 125 μg/ml, PVP 29,000 0.5% w/w
[33] = drug 125 μg/ml, PVP 55,000 0.5% w/w
[34] = drug 250 μg/ml, Dextran 65,000 0.5% w/w
[35] = drug 250 μg/ml, Ethylcellulose A15 0.5% w/w
[36] = drug 250 μg/ml, Glycerin (non-polymer) 0.5% w/w
[37] = drug 250 μg/ml, HPC 80,000 0.5% w/w
[38] = drug 250 μg/ml, HPMC E15 0.5% w/w
[39] = drug 250 μg/ml, Na CMC 250,000 0.5% w/w
[40] = drug 250 μg/ml, PEG 8,000 0.5% w/w
[41] = drug 250 μg/ml, PEG 20,000 0.5% w/w
[42] = drug 250 μg/ml, PVP 10,000 0.5% w/w
[43] = drug 250 μg/ml, PVP 29,000 0.5% w/w
[44] = drug 250 μg/ml, PVP 55,000 0.5% w/w

Question: With `Cc1onc(-c2ccccc2)c1-c1ccc(S(N)(=O)=O)cc1` [Valdecoxib, 4-[5-methyl-3-phenylisoxazol-4-yl]benzenesulfonamide] as the molecule, how does the Absorbance [1] read?
Answer: Its Absorbance is 0.03.

Question: And the Absorbance [2]?
Answer: Its Absorbance is 0.033.

Question: What about the Absorbance [3] of the same molecule?
Answer: The Absorbance was 0.03.

Question: What about the Absorbance [4] of the same molecule?
Answer: Its Absorbance is 0.031.

Question: And the Absorbance [5]?
Answer: Its Absorbance is 0.032.

Question: What about the Absorbance [6] of the same molecule?
Answer: Its Absorbance is 0.03.

Question: And the Absorbance [7]?
Answer: Its Absorbance is 0.03.

Question: And the Absorbance [8]?
Answer: Its Absorbance is 0.031.

Question: What about the Absorbance [9] of the same molecule?
Answer: Its Absorbance is 0.032.

Question: And the Absorbance [10]?
Answer: Its Absorbance is 0.03.

Question: What about the Absorbance [11] of the same molecule?
Answer: Its Absorbance is 0.032.

Question: What about the Absorbance (drug 31.3 μg/ml, polymer None) of the same molecule?
Answer: Its Absorbance is 0.031.

Question: And the Absorbance [12]?
Answer: Its Absorbance is 0.031.

Question: What about the Absorbance [13] of the same molecule?
Answer: Its Absorbance is 0.033.

Question: And the Absorbance [14]?
Answer: Its Absorbance is 0.028.

Question: What about the Absorbance [15] of the same molecule?
Answer: Its Absorbance is 0.032.

Question: And the Absorbance [16]?
Answer: Its Absorbance is 0.034.

Question: And the Absorbance [17]?
Answer: Its Absorbance is 0.036.

Question: And the Absorbance [18]?
Answer: Its Absorbance is 0.03.

Question: And the Absorbance [19]?
Answer: The Absorbance was 0.031.

Question: And the Absorbance [20]?
Answer: The Absorbance was 0.034.

Question: And the Absorbance [21]?
Answer: Its Absorbance is 0.03.

Question: What about the Absorbance [22] of the same molecule?
Answer: Its Absorbance is 0.031.

Question: And the Absorbance (drug 62.5 μg/ml, polymer None)?
Answer: The Absorbance was 0.029.

Question: What about the Absorbance [23] of the same molecule?
Answer: The Absorbance was 0.033.

Question: What about the Absorbance [24] of the same molecule?
Answer: The Absorbance was 0.033.

Question: What about the Absorbance [25] of the same molecule?
Answer: The Absorbance was 0.029.

Question: And the Absorbance [26]?
Answer: The Absorbance was 0.046.

Question: And the Absorbance [27]?
Answer: The Absorbance was 0.034.

Question: What about the Absorbance [28] of the same molecule?
Answer: The Absorbance was 0.09.

Question: And the Absorbance [29]?
Answer: The Absorbance was 0.03.

Question: What about the Absorbance [30] of the same molecule?
Answer: Its Absorbance is 0.031.

Question: What about the Absorbance [31] of the same molecule?
Answer: Its Absorbance is 0.032.

Question: And the Absorbance [32]?
Answer: Its Absorbance is 0.032.

Question: What about the Absorbance [33] of the same molecule?
Answer: Its Absorbance is 0.032.

Question: What about the Absorbance (drug 125 μg/ml, polymer None) of the same molecule?
Answer: The Absorbance was 0.029.

Question: What about the Absorbance [34] of the same molecule?
Answer: The Absorbance was 0.289.

Question: And the Absorbance [35]?
Answer: The Absorbance was 0.052.

Question: What about the Absorbance (drug 250 μg/ml, Ethylcellulose A15 0.5% w/w, listed as valdecoxib) of the same molecule?
Answer: Its Absorbance is “reduced turbidity”.

Question: What about the Absorbance [36] of the same molecule?
Answer: The Absorbance was 0.229.

Question: What about the Absorbance [37] of the same molecule?
Answer: Its Absorbance is 0.093.

Question: What about the Absorbance (drug 250 μg/ml, HPC 80,000 0.5% w/w, listed as valdecoxib) of the same molecule?
Answer: Its Absorbance is “reduced turbidity”.

Question: And the Absorbance [38]?
Answer: The Absorbance was 0.064.

Question: And the Absorbance (drug 250 μg/ml, HPMC E15 0.5% w/w, listed as valdecoxib)?
Answer: Its Absorbance is “reduced turbidity”.

Question: And the Absorbance [39]?
Answer: Its Absorbance is 0.174.

Question: What about the Absorbance (drug 250 μg/ml, Na CMC 250,000 0.5% w/w, listed as valdecoxib) of the same molecule?
Answer: Its Absorbance is “reduced turbidity”.

Question: And the Absorbance [40]?
Answer: The Absorbance was 0.345.

Question: What about the Absorbance [41] of the same molecule?
Answer: The Absorbance was 0.433.

Question: And the Absorbance [42]?
Answer: The Absorbance was 0.321.

Question: And the Absorbance [43]?
Answer: Its Absorbance is 0.183.

Question: What about the Absorbance (drug 250 μg/ml, PVP 29,000 0.5% w/w, listed as valdecoxib) of the same molecule?
Answer: The Absorbance was “reduced turbidity”.

Question: And the Absorbance [44]?
Answer: The Absorbance was 0.162.

Question: And the Absorbance (drug 250 μg/ml, PVP 55,000 0.5% w/w, listed as valdecoxib)?
Answer: Its Absorbance is “reduced turbidity”.

Question: And the Absorbance (drug 250 μg/ml, polymer None)?
Answer: Its Absorbance is 0.185.

Question: Which results are given for `Cc1ccc(-c2cc(C(F)(F)F)nn2-c2ccc(S(N)(=O)=O)cc2)cc1` [Celecoxib, 4-[5-(4-methylphenyl)-3-(trifluoromethyl)-1H-pyrazol-1-yl]benzenesulfonamide]?
Answer: Absorbance [1]: 0.033; Absorbance [2]: 0.041; Absorbance [3]: 0.038; Absorbance [4]: 0.034; Absorbance [5]: 0.037; Absorbance [6]: 0.046; Absorbance [7]: 0.031; Absorbance [8]: 0.039; Absorbance [9]: 0.035; Absorbance [10]: 0.031; Absorbance [11]: 0.04; Absorbance (drug 31.3 μg/ml, polymer None): 0.036; Absorbance [12]: 0.076; Absorbance [13]: 0.039; Absorbance [14]: 0.07; Absorbance [15]: 0.038; Absorbance [16]: 0.039; Absorbance [17]: 0.078; Absorbance [18]: 0.169; Absorbance [19]: 0.16; Absorbance [20]: 0.041; Absorbance [21]: 0.037; Absorbance [22]: 0.049; Absorbance (drug 62.5 μg/ml, polymer None): 0.069; Absorbance [23]: 0.266; Absorbance [24]: 0.06; Absorbance (drug 125 μg/ml, Ethylcellulose A15 0.5% w/w, listed as celecoxib): reduced turbidity; Absorbance [25]: 0.184; Absorbance [26]: 0.05; Absorbance (drug 125 μg/ml, HPC 80,000 0.5% w/w, listed as celecoxib): reduced turbidity; Absorbance [27]: 0.049; Absorbance (drug 125 μg/ml, HPMC E15 0.5% w/w, listed as celecoxib): reduced turbidity; Absorbance [28]: 0.083; Absorbance (drug 125 μg/ml, Na CMC 250,000 0.5% w/w, listed as celecoxib): reduced turbidity; Absorbance [29]: 0.308; Absorbance [30]: 0.342; Absorbance [31]: 0.072; Absorbance (drug 125 μg/ml, PVP 10,000 0.5% w/w, listed as celecoxib): reduced turbidity; Absorbance [32]: 0.064; Absorbance (drug 125 μg/ml, PVP 29,000 0.5% w/w, listed as celecoxib): reduced turbidity; Absorbance [33]: 0.048; Absorbance (drug 125 μg/ml, PVP 55,000 0.5% w/w, listed as celecoxib): reduced turbidity; Absorbance (drug 125 μg/ml, polymer None): 0.146; Absorbance [34]: 0.379; Absorbance [35]: 0.085; Absorbance (drug 250 μg/ml, Ethylcellulose A15 0.5% w/w, listed as celecoxib): reduced turbidity; Absorbance [36]: 0.41; Absorbance [37]: 0.11; Absorbance (drug 250 μg/ml, HPC 80,000 0.5% w/w, listed as celecoxib): reduced turbidity; Absorbance [38]: 0.093; Absorbance (drug 250 μg/ml, HPMC E15 0.5% w/w, listed as celecoxib): reduced turbidity; Absorbance [39]: 0.148; Absorbance (drug 250 μg/ml, Na CMC 250,000 0.5% w/w, listed as celecoxib): reduced turbidity; Absorbance [40]: 0.485; Absorbance [41]: 0.654; Absorbance [42]: 0.2; Absorbance (drug 250 μg/ml, PVP 10,000 0.5% w/w, listed as celecoxib): reduced turbidity; Absorbance [43]: 0.118; Absorbance (drug 250 μg/ml, PVP 29,000 0.5% w/w, listed as celecoxib): reduced turbidity; Absorbance [44]: 0.105; Absorbance (drug 250 μg/ml, PVP 55,000 0.5% w/w, listed as celecoxib): reduced turbidity; Absorbance (drug 250 μg/ml, polymer None): 0.376
